Experimental data taken from ChEMBL document CHEMBL1151840, “Synthetic oligoribonucleotides containing arabinonucleotides act as agonists of TLR7 and 8” (Bioorg Med Chem Lett, 2009).
The source made the active and inactive calls. No cut-off for these calls is given here.

Key:
[1] = molecular target: T1, Toll-like receptor 8 (Homo sapiens) (UniProt Q9NR97); experiment: Agonist activity at human TLR8 expressed in HEK293XL cells assessed as NF-kappaB activation after 18 hrs; format: functional, cell-based
T1 sequence (whole entry): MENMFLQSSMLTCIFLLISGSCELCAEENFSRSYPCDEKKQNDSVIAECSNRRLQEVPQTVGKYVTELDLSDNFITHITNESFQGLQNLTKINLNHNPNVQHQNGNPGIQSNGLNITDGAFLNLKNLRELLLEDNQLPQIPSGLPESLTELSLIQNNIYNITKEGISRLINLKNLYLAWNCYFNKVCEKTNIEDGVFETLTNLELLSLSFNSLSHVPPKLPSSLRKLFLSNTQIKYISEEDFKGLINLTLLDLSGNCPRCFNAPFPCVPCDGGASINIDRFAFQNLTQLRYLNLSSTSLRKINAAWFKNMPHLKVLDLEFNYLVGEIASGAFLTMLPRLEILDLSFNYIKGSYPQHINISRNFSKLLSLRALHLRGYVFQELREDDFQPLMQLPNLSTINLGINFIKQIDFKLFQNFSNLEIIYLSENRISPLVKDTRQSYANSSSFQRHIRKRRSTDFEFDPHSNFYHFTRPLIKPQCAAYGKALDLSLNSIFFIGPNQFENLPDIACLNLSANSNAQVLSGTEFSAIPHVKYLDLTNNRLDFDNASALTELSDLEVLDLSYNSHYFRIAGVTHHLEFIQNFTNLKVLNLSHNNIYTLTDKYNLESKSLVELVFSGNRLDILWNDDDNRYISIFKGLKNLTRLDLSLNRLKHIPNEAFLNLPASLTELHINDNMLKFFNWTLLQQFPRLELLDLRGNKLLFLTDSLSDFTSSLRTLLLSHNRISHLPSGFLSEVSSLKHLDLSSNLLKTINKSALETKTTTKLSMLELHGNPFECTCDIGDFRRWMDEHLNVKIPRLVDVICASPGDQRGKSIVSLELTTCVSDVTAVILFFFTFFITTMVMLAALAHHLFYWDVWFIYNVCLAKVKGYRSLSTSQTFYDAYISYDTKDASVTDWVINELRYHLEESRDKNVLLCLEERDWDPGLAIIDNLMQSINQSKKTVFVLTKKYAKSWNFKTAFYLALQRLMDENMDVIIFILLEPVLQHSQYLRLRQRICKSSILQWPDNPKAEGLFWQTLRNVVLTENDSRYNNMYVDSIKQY

[2] = molecular target: T2, Toll-like receptor 7 (Homo sapiens) (UniProt Q9NYK1); experiment: Agonist activity at human TLR7 expressed in HEK293XL cells assessed as NF-kappaB activation after 18 hrs; format: functional, cell-based
T2 sequence (whole entry): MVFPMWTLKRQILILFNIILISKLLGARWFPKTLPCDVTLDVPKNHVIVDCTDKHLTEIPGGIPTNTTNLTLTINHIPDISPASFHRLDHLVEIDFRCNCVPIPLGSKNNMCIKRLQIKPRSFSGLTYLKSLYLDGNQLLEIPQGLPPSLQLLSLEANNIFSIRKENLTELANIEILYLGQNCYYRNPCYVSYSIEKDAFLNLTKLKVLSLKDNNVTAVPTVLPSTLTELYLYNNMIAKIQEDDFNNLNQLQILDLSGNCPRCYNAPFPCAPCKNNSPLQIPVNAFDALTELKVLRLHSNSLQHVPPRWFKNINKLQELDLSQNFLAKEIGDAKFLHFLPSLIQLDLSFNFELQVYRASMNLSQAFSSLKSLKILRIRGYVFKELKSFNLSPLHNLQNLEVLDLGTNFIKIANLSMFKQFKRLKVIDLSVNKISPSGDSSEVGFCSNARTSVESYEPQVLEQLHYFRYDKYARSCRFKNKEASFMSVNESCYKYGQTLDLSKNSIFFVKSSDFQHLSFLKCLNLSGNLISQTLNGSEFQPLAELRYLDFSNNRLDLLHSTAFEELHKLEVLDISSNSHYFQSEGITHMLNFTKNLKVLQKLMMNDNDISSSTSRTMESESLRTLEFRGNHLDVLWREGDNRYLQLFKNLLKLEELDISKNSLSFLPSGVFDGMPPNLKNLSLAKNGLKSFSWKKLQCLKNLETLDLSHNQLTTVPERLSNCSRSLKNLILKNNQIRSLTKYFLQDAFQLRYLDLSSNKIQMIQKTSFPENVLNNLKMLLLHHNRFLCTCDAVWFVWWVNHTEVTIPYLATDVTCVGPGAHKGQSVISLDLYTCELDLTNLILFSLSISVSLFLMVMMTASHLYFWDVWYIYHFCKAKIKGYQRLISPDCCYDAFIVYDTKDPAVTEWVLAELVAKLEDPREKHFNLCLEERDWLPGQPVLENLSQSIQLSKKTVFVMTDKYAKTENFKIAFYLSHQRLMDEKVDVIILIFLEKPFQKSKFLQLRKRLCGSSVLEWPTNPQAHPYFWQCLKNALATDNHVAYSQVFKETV

[3] = tested on: PBMC; experiment: Stimulation of immune response in human PBMC assessed as induction of IL1-beta production at 150 ug/ml after 24 hrs; format: functional, cell-based
[4] = tested on: PBMC; experiment: Stimulation of immune response in human PBMC assessed as induction of IL2R level at 150 ug/ml after 24 hrs; format: functional, cell-based
[5] = tested on: PBMC; experiment: Stimulation of immune response in human PBMC assessed as induction of IL8 production at 150 ug/ml after 24 hrs; format: functional, cell-based
[6] = tested on: PBMC; experiment: Stimulation of immune response in human PBMC assessed as induction of IL10 production at 150 ug/ml after 24 hrs; format: functional, cell-based
[7] = tested on: PBMC; experiment: Stimulation of immune response in human PBMC assessed as induction of IL12 production at 150 ug/ml after 24 hrs; format: functional, cell-based
[8] = tested on: PBMC; experiment: Stimulation of immune response in human PBMC assessed as induction of IFNalpha production at 150 ug/ml after 24 hrs; format: functional, cell-based
[9] = tested on: PBMC; experiment: Stimulation of immune response in human PBMC assessed as induction of IFN-gamma production at 150 ug/ml after 24 hrs; format: functional, cell-based
[10] = tested on: PBMC; experiment: Stimulation of immune response in human PBMC assessed as induction of MCP1 production at 150 ug/ml after 24 hrs; format: functional, cell-based
[11] = tested on: PBMC; experiment: Stimulation of immune response in human PBMC assessed as induction of RANTES production at 150 ug/ml after 24 hrs; format: functional, cell-based
[12] = tested on: PBMC; experiment: Stimulation of immune response in human PBMC assessed as induction of MIP1alpha production at 150 ug/ml after 24 hrs; format: functional, cell-based
[13] = tested on: PBMC; experiment: Stimulation of immune response in human PBMC assessed as induction of MIP1beta production at 150 ug/ml after 24 hrs; format: functional, cell-based
[14] = tested on: PBMC; experiment: Stimulation of immune response in human PBMC assessed as induction of TNFalpha production at 150 ug/ml after 24 hrs; format: functional, cell-based
[15] = species on record: Homo sapiens; experiment: Stimulation of immune response in human pDC assessed as induction of IFN-gamma production at 150 ug/ml after 24 hrs; format: functional
[16] = species on record: Homo sapiens; experiment: Stimulation of immune response in human pDC assessed as induction of IFNalpha production at 150 ug/ml after 24 hrs; format: functional
[17] = species on record: Homo sapiens; experiment: Stimulation of immune response in human pDC assessed as induction of IL12 production at 150 ug/ml after 24 hrs; format: functional
[18] = species on record: Homo sapiens; experiment: Stimulation of immune response in human pDC assessed as induction of TNFalpha production at 150 ug/ml after 24 hrs; format: functional
[19] = species on record: Homo sapiens; experiment: Stimulation of immune response in human pDC assessed as induction of MIP1alpha production at 150 ug/ml after 24 hrs; format: functional
[20] = species on record: Homo sapiens; experiment: Stimulation of immune response in human pDC assessed as induction of MIP1beta production at 150 ug/ml after 24 hrs; format: functional
[21] = tested on: Mus musculus; experiment: Stimulation of immune response in C57BL/6 mouse assessed as induction of serum IL12 production at 50 mg/kg, sc after 2 hrs by luminex multiplex assay; format: functional, organism-based; set-up: dose 50 mg/kg
[22] = Stability in human serum assessed as full-length compound remaining after 10 mins by anion-exchange HPLC; format: ADME, cell-free; settings: read-out: Stability

Nc1ccn([C@@H]2O[C@H](COP(=O)(S)O[C@H]3[C@@H](O)[C@H](n4cnc5c(N)ncnc54)O[C@@H]3COP(=O)(S)O[C@H]3[C@@H](O)[C@H](n4cnc5c(=O)[nH]c(N)nc54)O[C@@H]3COP(=O)(S)O[C@H]3[C@@H](O)[C@H](n4ccc(=O)[nH]c4=O)O[C@@H]3COP(=O)(S)O[C@H]3[C@@H](O)[C@H](n4cnc5c(=O)[nH]c(N)nc54)O[C@@H]3COP(=O)(S)O[C@H]3[C@@H](O)[C@H](n4ccc(=O)[nH]c4=O)O[C@@H]3COP(=O)(S)O[C@H]3[C@@H](O)[C@H](n4cnc5c(=O)[nH]c(N)nc54)O[C@@H]3COP(=O)(S)O[C@H]3[C@@H](O)[C@H](n4ccc(=O)[nH]c4=O)O[C@@H]3COP(=O)(S)O[C@H]3[C@@H](O)[C@H](n4ccc(=O)[nH]c4=O)O[C@@H]3COP(=O)(S)O[C@H]3[C@@H](O)[C@H](n4cnc5c(=O)[nH]c(N)nc54)O[C@@H]3COP(=O)(S)O[C@H]3[C@@H](O)[C@H](n4ccc(=O)[nH]c4=O)O[C@H]3CO)[C@@H](OP(=O)(S)OCC(O)COP(=O)(S)O[C@H]3[C@@H](O)[C@H](n4ccc(N)nc4=O)O[C@@H]3COP(=O)(S)O[C@H]3[C@@H](O)[C@H](n4cnc5c(N)ncnc54)O[C@@H]3COP(=O)(S)O[C@H]3[C@@H](O)[C@H](n4cnc5c(=O)[nH]c(N)nc54)O[C@@H]3COP(=O)(S)O[C@H]3[C@@H](O)[C@H](n4ccc(=O)[nH]c4=O)O[C@@H]3COP(=O)(S)O[C@H]3[C@@H](O)[C@H](n4cnc5c(=O)[nH]c(N)nc54)O[C@@H]3COP(=O)(S)O[C@H]3[C@@H](O)[C@H](n4ccc(=O)[nH]c4=O)O[C@@H]3COP(=O)(S)O[C@H]3[C@@H](O)[C@H](n4cnc5c(=O)[nH]c(N)nc54)O[C@@H]3COP(=O)(S)O[C@H]3[C@@H](O)[C@H](n4ccc(=O)[nH]c4=O)O[C@@H]3COP(=O)(S)O[C@H]3[C@@H](O)[C@H](n4ccc(=O)[nH]c4=O)O[C@@H]3COP(=O)(S)O[C@H]3[C@@H](O)[C@H](n4cnc5c(=O)[nH]c(N)nc54)O[C@@H]3COP(=O)(S)O[C@H]3[C@@H](O)[C@H](n4ccc(=O)[nH]c4=O)O[C@@H]3CO)[C@H]2O)c(=O)n1 (stereo in doubt; 5)
Activity [1]: Dose-dependent effect
Activity [2]: inactive
Activity [3]: Active
Activity [4]: Active
Activity [5]: Active
Activity [6]: Active
Activity [7]: Active
Activity [8]: Active
Activity [9]: Active
Activity [10]: Active
Activity [11]: Active
Activity [12]: Active
Activity [13]: Active
Activity [14]: Active
Activity [15]: Active
Activity [16]: inactive
Activity [17]: Active
Activity [18]: Active
Activity [19]: Active
Activity [20]: Active
Activity [21]: inactive

Nc1ccn([C@@H]2O[C@H](COP(=O)(S)O[C@H]3[C@@H](O)[C@H](n4cnc5c(N)ncnc54)O[C@@H]3COP(=O)(S)O[C@H]3[C@@H](O)[C@H](n4cnc5c(=O)[nH]c(N)nc54)O[C@@H]3COP(=O)(S)O[C@H]3[C@@H](O)[C@H](n4ccc(=O)[nH]c4=O)O[C@@H]3COP(=O)(S)O[C@H]3[C@@H](O)[C@H](n4cnc5c(=O)[nH]c(N)nc54)O[C@@H]3COP(=O)(S)O[C@H]3[C@@H](O)[C@H](n4ccc(=O)[nH]c4=O)O[C@@H]3COP(=O)(S)O[C@H]3[C@@H](O)[C@H](n4cnc5c(=O)[nH]c(N)nc54)O[C@@H]3COP(=O)(S)O[C@H]3[C@@H](O)[C@H](n4ccc(=O)[nH]c4=O)O[C@@H]3COP(=O)(S)O[C@H]3[C@@H](O)[C@H](n4ccc(=O)[nH]c4=O)O[C@@H]3COP(=O)(S)O[C@H]3[C@@H](O)[C@H](n4cnc5c(=O)[nH]c(N)nc54)O[C@@H]3COP(=O)(S)O[C@H]3[C@@H](O)[C@H](n4ccc(=O)[nH]c4=O)O[C@H]3CO)[C@@H](OP(=O)(S)OCC(O)COP(=O)(S)O[C@H]3[C@@H](O)[C@H](n4ccc(N)nc4=O)O[C@@H]3COP(=O)(S)O[C@H]3[C@@H](O)[C@H](n4cnc5c(N)ncnc54)O[C@@H]3COP(=O)(S)O[C@H]3[C@@H](O)[C@H](n4cnc5c(=O)[nH]c(N)nc54)O[C@@H]3COP(=O)(S)O[C@H]3[C@@H](O)[C@H](n4ccc(=O)[nH]c4=O)O[C@@H]3COP(=O)(S)O[C@H]3[C@@H](O)[C@H](n4cnc5c(=O)[nH]c(N)nc54)O[C@@H]3COP(=O)(S)O[C@H]3[C@@H](O)[C@H](n4ccc(=O)[nH]c4=O)O[C@@H]3COP(=O)(S)O[C@H]3[C@@H](O)[C@H](n4cnc5c(=O)[nH]c(N)nc54)O[C@@H]3COP(=O)(S)O[C@H]3[C@@H](O)[C@H](n4ccc(=O)[nH]c4=O)O[C@@H]3COP(=O)(S)O[C@H]3[C@@H](O)[C@H](n4ccc(=O)[nH]c4=O)O[C@@H]3COP(=O)(S)O[C@H]3[C@@H](O)[C@H](n4cnc5c(=O)[nH]c(N)nc54)O[C@@H]3COP(=O)(S)O[C@H]3[C@@H](O)[C@H](n4ccc(=O)[nH]c4=O)O[C@@H]3CO)[C@H]2O)c(=O)n1 (stereo in doubt; 6)
remaining at 10 min [22]: 76%
